# Biological target: GCN2 (Homo sapiens, UniProt Q9P2K8)
# Test: TR-FRET biochemical assay for inhibition of GCN2 (Example 106, for Example 1-4BB)
# Conditions: Table 8
# Sequence of GCN2 (Q9P2K8 whole entry): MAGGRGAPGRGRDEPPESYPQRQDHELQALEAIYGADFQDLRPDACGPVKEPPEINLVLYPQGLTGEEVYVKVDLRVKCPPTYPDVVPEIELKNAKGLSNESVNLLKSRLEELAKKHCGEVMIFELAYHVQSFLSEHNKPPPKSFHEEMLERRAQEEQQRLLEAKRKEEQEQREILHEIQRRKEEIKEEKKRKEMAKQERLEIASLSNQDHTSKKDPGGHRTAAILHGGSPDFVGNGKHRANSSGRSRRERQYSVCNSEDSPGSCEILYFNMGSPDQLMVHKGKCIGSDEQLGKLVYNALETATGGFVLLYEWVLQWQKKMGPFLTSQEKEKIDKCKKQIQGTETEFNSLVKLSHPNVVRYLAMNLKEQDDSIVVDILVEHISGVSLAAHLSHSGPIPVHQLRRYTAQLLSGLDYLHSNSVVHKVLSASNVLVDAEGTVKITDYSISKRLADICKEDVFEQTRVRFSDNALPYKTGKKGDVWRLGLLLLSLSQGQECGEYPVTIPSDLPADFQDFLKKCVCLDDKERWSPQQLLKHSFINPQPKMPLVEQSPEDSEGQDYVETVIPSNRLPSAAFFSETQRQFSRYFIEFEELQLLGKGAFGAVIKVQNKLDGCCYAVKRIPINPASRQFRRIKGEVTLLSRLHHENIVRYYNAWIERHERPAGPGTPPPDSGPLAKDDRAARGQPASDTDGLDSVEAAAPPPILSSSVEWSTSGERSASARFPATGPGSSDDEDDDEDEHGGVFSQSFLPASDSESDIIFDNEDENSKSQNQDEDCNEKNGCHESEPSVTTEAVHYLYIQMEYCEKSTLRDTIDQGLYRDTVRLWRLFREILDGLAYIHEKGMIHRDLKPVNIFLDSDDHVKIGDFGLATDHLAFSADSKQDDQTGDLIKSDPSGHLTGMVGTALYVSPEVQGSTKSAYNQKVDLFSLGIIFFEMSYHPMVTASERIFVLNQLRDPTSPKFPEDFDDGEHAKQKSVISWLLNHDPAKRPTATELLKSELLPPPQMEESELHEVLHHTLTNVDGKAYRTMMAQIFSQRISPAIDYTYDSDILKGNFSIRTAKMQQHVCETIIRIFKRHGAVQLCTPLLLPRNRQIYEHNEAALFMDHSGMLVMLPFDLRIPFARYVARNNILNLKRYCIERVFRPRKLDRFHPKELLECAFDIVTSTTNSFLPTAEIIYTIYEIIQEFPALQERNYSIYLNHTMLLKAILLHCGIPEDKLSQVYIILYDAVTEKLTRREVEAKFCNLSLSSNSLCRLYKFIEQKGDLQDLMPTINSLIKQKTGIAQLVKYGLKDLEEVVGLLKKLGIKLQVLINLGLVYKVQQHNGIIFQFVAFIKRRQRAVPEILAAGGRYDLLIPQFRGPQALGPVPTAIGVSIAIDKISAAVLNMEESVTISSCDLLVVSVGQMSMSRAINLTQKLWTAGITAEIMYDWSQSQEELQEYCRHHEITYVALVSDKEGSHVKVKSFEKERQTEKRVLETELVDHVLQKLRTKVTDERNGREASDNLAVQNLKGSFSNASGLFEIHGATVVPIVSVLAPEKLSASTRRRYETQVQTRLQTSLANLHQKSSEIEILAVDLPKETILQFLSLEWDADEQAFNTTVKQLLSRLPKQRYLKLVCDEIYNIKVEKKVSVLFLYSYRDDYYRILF
row,IC50 [nM],Structure (SMILES)
1,< 500,"Cc1c(Cl)cccc1S(=O)(=O)Nc1ccc(F)c(-c2ccc3c(-c4ncc[nH]4)n[nH]c3c2F)c1F [Example 2AY, 3-chloro-N-(2,4-difluoro-3-(7-fluoro-3-(1H-imidazol-2-yl)-1H-indazol-6-yl)phenyl)-2-methylbenzenesulfonamide]"
2,< 500,"O=S(=O)(Nc1ccc(F)c(-c2ccc3c(-c4ncc[nH]4)n[nH]c3c2F)c1F)c1cc(Cl)ccc1Cl [Example 2AX, 2,5-dichloro-N-(2,4-difluoro-3-(7-fluoro-3-(1H-imidazol-2-yl)-1H-indazol-6-yl)phenyl)-benzenesulfonamide]"
3,500 to 2500,"COc1ncc(Cl)cc1S(=O)(=O)Nc1ccc(F)c(-c2ccc3c(-c4ccccn4)n[nH]c3c2F)c1F [Example 2CD, 5-chloro-N-(2,4-difluoro-3-(7-fluoro-3-(pyridin-2-yl)-1H-indazol-6-yl)phenyl)-2-methoxypyridine-3-sulfonamide]"
4,< 500,"Cc1cnc(C)c(S(=O)(=O)Nc2ccc(F)c(-c3ccc4c(-c5ncc[nH]5)n[nH]c4c3F)c2F)c1 [Example 2AH, N-(2,4-difluoro-3-(7-fluoro-3-(1H-imidazol-2-yl)-1H-indazol-6-yl)phenyl)-2,5-dimethyl-pyridine-3-sulfonamide]"
5,< 500,"COc1ncc(Cl)cc1S(=O)(=O)Nc1ccc(F)c(-c2ccc3c(C(=O)NCCN(C)C)n[nH]c3c2F)c1F [Example 2CF, 6-(3-((5-chloro-2-methoxy-pyridine)-3-sulfonamido)-2,6-difluorophenyl)-N-(2-(di-methylamino)ethyl)-7-fluoro-1H-indazole-3-carboxamide]"
6,500 to 2500,"Cc1nn(C)c(C)c1S(=O)(=O)Nc1ccc(F)c(-c2ccc3c(-c4ncc[nH]4)n[nH]c3c2F)c1F [Example 2E, N-(2,4-difluoro-3-(7-fluoro-3-(1H-imidazol-2-yl)-1H-indazol-6-yl)phenyl)-1,3,5-trimethyl-1H-pyrazole-4-sulfonamide]"
7,< 500,"O=S(=O)(Nc1ccc(F)c(-c2ccc3c(-c4ncc[nH]4)n[nH]c3c2F)c1F)c1cccc(O)c1F [Example 2AQ, N-(2,4-difluoro-3-(7-fluoro-3-(1H-imidazol-2-yl)-1H-indazol-6-yl)phenyl)-2-fluoro-3-hydroxybenzene-sulfonamide]"
8,< 500,"COc1ncc(Cl)cc1S(=O)(=O)Nc1cccc(-c2ccc3c(-c4ncc[nH]4)n[nH]c3c2F)c1C [Example 2P, 5-chloro-N-(3-(7-fluoro-3-(1H-imidazol-2-yl)-1H-indazol-6-yl)-2-methylphenyl)-2-methoxypyridine-3-sulfonamide]"
9,< 500,"COC(=O)c1n[nH]c2c(F)c(-c3c(F)ccc(NS(=O)(=O)c4cc(Cl)cnc4OC)c3F)ccc12 [Example 4, Methyl 6-(3-((5-Chloro-2-methoxypyridine)-3-sulfonamido)-2,6-difluorophenyl)-7-fluoro-1H-indazole-3-carboxylate]"
10,< 500,"Cc1cccc(F)c1S(=O)(=O)Nc1ccc(F)c(-c2ccc3c(-c4ncc[nH]4)n[nH]c3c2F)c1F [Example 2AT, N-(2,4-difluoro-3-(7-fluoro-3-(1H-imidazol-2-yl)-1H-indazol-6-yl)phenyl)-2-fluoro-6-methylbenzene-sulfonamide]"
11,< 500,"O=S(=O)(Nc1ccc(F)c(-c2ccc3c(-c4ncc[nH]4)n[nH]c3c2F)c1F)c1cc(F)ccc1F [Example 2BH, N-(2,4-difluoro-3-(7-fluoro-3-(1H-imidazol-2-yl)-1H-indazol-6-yl)phenyl)-2,5-difluorobenzenesulfonamide]"

# Same assay, conditions: Table 9
row,IC50 [nM],Structure (SMILES)
1,< 500,"COc1ncc(F)cc1S(=O)(=O)Nc1cc(F)cc(-c2ccc3c(-c4ncc[nH]4)n[nH]c3c2F)c1F [Example 3AS, N-(2,5-difluoro-3-(7-fluoro-3-(1H-imidazol-2-yl)-1H-indazol-6-yl)phenyl)-5-fluoro-2-methoxypyridine-3-sulfonamide]"
2,< 500,"COc1ncc(F)cc1S(=O)(=O)Nc1ccc(F)c(-c2ccc3c(-c4nc(Cl)c[nH]4)n[nH]c3c2F)c1F [Example 17, N-(3-(3-(4-Chloro-1H-imidazol-2-yl)-7-fluoro-1H-indazol-6-yl)-2,4-difluorophenyl)-5-fluoro-2-methoxypyridine-3-sulfonamide]"
3,500 to 2500,"COc1ncc(F)cc1S(=O)(=O)Nc1ccc(F)c(-c2ccc3c(C(=O)NC4CCNCC4)n[nH]c3c2F)c1F [Example 3AU, 6-(2,6-difluoro-3-((5-fluoro-2-methoxypyridine)-3-sulfonamido)phenyl)-7-fluoro-N-(piperidin-4-yl)-1H-indazole-3-carboxamide]"
4,> 10000,"COc1ncc(F)cc1S(=O)(=O)Nc1ncc(F)c(-c2ccc3c(C(N)=O)n[nH]c3c2F)c1F [Example 3M, 6-(3,5-difluoro-2-((5-fluoro-2-methoxypyridine)-3-sulfonamido)pyridin-4-yl)-7-fluoro-1H-indazole-3-carboxamide]"
5,2500 to 10000,"COc1ncc(F)cc1S(=O)(=O)Nc1ccc(F)c(-c2ccc3c(C(=O)Nc4cccn(C)c4=O)n[nH]c3c2F)c1F [Example 3BW, 6-(2,6-difluoro-3-((5-fluoro-2-methoxypyridine)-3-sulfonamido)phenyl)-7-fluoro-N-(1-methyl-2-oxo-1,2-dihydropyridin-3-yl)-1H-indazole-3-carboxamide]"
6,2500 to 10000,"COc1ncc(CO)cc1S(=O)(=O)Nc1ccc(F)c(-c2ccc3c(C(N)=O)n[nH]c3c2F)c1F [Example 3DE, 6-(2,6-difluoro-3-((5-(hydroxylmethyl)-2-methoxy-pyridine)-3-sulfonamido)-phenyl)-7-fluoro-1H-indazole-3-carboxamide]"
7,< 500,"COc1ncc(F)cc1S(=O)(=O)Nc1ccc(F)c(-c2ccc3c(-c4nc(C(N)=O)c[nH]4)n[nH]c3c2F)c1F [Example 20, 2-(6-(2,6-Difluoro-3-((5-fluoro-2-methoxypyridine)-3-sulfonamido)phenyl)-7-fluoro-1H-indazol-3-yl)-1H-imidazole-4-carboxamide]"
8,500 to 2500,"Cc1ncc(F)cc1S(=O)(=O)Nc1ccc(F)c(-c2ccc3c(C(=O)NCCCN(C)C)n[nH]c3c2F)c1F [Example 3CI, 6-(2,6-difluoro-3-((5-fluoro-2-methylpyridine)-3-sulfonamido)phenyl)-N-(3-(dimethylamino)propyl)-7-fluoro-1H-indazole-3-carboxamide]"
9,< 500,"COc1nc(C)c(Cl)cc1S(=O)(=O)Nc1ccc(F)c(-c2ccc3c(C(=O)NCCCO)n[nH]c3c2F)c1F [Example 3DO, 6-(3-((5-chloro-2-methoxy-6-methylpyridine)-3-sulfon-amido)-2,6-difluorophenyl)-7-fluoro-N-(3-hydroxypropyl)-1H-indazole-3-carboxamide]"
10,> 10000,"COc1ncncc1S(=O)(=O)Nc1ccc(F)c(-c2ccc3c(C(=O)NCCCN(C)C)n[nH]c3c2F)c1F [Example 3CM, 6-(2,6-difluoro-3-((4-methoxypyrimidine)-5-sulfonamido)phenyl)-N-(3-(dimethylamino)propyl)-7-fluoro-1H-indazole-3-carboxamide]"
11,< 500,"COc1ncc(F)cc1S(=O)(=O)Nc1ccc(F)c(-c2ccc3c(C(=O)NCC(CO)CO)n[nH]c3c2F)c1F [Example 3AT, 6-(2,6-difluoro-3-((5-fluoro-2-methoxypyridine)-3-sulfonamido)phenyl)-7-fluoro-N-(3-hydroxy-2-(hydroxymethyl)propyl)-1H-indazole-3-carboxamide]"
12,2500 to 10000,"COc1ncc(Cl)cc1S(=O)(=O)Nc1ccc(F)c(-c2ccc3c(C(=O)NC4COC4)n[nH]c3c2F)c1F [Example 3B, 6-(3-((5-chloro-2-methoxy-pyridine)-3-sulfonamido)-2,6-difluorophenyl)-7-fluoro-N-(oxetan-3-yl)-1H-indazole-3-carboxamide]"
13,< 500,"Cc1ncc(F)cc1S(=O)(=O)Nc1cc(F)cc(-c2ccc3c(-c4ncc[nH]4)n[nH]c3c2F)c1F [Example 27, N-(2,5-Difluoro-3-(7-fluoro-3-(1H-imidazol-2-yl)-1H-indazol-6-yl)phenyl)-5-fluoro-2-methylpyridine-3-sulfonamide]"
14,< 500,"COc1ncc(F)cc1S(=O)(=O)Nc1ccc(F)c(-c2ccc3c(-c4nc(C#N)c[nH]4)n[nH]c3c2F)c1F [Example 19, N-(3-(3-(4-Cyano-1H-imidazol-2-yl)-7-fluoro-1H-indazol-6-yl)-2,4-difluorophenyl)-5-fluoro-2-methoxypyridine-3-sulfonamide]"
15,500 to 2500,COc1ncc(C#N)cc1S(=O)(=O)Nc1ccc(F)c(-c2ccc3c(C(=O)NCCCO)n[nH]c3c2F)c1F [Example 4C]
16,> 10000,"COc1ncccc1S(=O)(=O)Nc1ccnc(-c2ccc3c(-c4ncc[nH]4)n[nH]c3c2F)c1C#N [Example 3G, N-(3-cyano-2-(7-fluoro-3-(1H-imidazol-2-yl)-1H-indazol-6-yl)pyridin-4-yl)-2-methoxypyridine-3-sulfonamide]"
17,500 to 2500,"COc1ncc(Cl)cc1S(=O)(=O)Nc1ccc(F)c(-c2ccc3c(C(=O)Nc4cn[nH]n4)n[nH]c3c2F)c1F [Example 3DF, 6-(3-((5-chloro-2-methoxy-pyridine)-3-sulfonamido)-2,6-difluorophenyl)-7-fluoro-1H-(2H-1,2,3-triazol-4-yl)-1H-indazole-3-carboxamide]"
18,< 500,"Cc1ccc(F)cc1S(=O)(=O)Nc1ccc(F)c(-c2ncc3c(-c4ncc[nH]4)n[nH]c3c2F)c1F [Example 38, N-[2,4-difluoro-3-[7-fluoro-3-(1H-imidazol-2-yl)-1H-pyrazolo[4,3-c]pyridin-6-yl]phenyl]-5-fluoro-2-methyl-benzenesulfonamide]"
19,500 to 2500,"COc1ccc(NS(=O)(=O)c2cc(F)cnc2OC)c(F)c1-c1ccc2c(C(N)=O)n[nH]c2c1F [Example 3AO, 7-fluoro-6-(2-fluoro-3-((5-fluoro-2-methoxypyridine)-3-sulfonamido)-6-methoxy-phenyl)-1H-indazole-3-carboxamide]"
20,< 500,"Cc1ncc(F)cc1S(=O)(=O)Nc1ccc(F)c(-c2ccc3c(C(N)=O)n[nH]c3c2F)c1F [Example 3BA, 6-(2,6-difluoro-3-((5-fluoro-2-methylpyridine)-3-sulfon-amido)phenyl)-7-fluoro-1H-indazole-3-carboxamide]"
